≈ marks a conversion by molar mass, not a printed value. Where two headings read alike, the source gives them in different places.
What was measured:
[1] = tested on: Plasmodium berghei KBG 173; experiment: Antimalarial blood schizonticidal test in mice; type: in vivo, Plasmodium berghei (infected ICR/HA Swiss mice); parameters: ΔMST (increase in mean survival time): unit: days; settings: for ED100 / minimal effective dose: Plasmodium berghei, sc; for ED100: read-out: Lowest Dose Curing All Mice; for minimal effective dose: read-out: Min. Curing Dose; for Cure/Treat at Min. Curing Dose: at the Min. Curing Dose
Summary of the method: (§1)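 Single s.c. doses (peanut oil vehicle, graded levels) given 72 h after i.p. inoculation of young Swiss mice with P. berghei KBG 173 blood (4 × 10^7 parasitized cells). Activity judged by cures (alive at 60 days) or significant mean survival gain over untreated controls, without drug-related deaths.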

[2] = Antimalarial blood schizonticidal test in mice; type: in vivo, Plasmodium berghei (infected ICR/HA Swiss mice); parameters: ΔMST (increase in mean survival time): unit: days; settings: mouse, in vivo, sc, single dose, read-out: Highest Non-Lethal Dose
Summary of the method: as §1

E. coli 9637 = experiment: In vitro antibacterial activity (MIC), E. coli 9637; settings: Escherichia coli, 9637, 18 h
P. vulgaris 6896 = experiment: In vitro antibacterial activity (MIC), P. vulgaris 6896; settings: Proteus vulgaris, 6896, 18 h
N. catarrhalis 8193 = experiment: In vitro antibacterial activity (MIC), N. catarrhalis 8193; settings: 18 h
S. aureus 53-180 = experiment: In vitro antibacterial activity (MIC), S. aureus 53-180; settings: Staphylococcus aureus, 53180, 18 h
K. pneumoniae 10031 = experiment: In vitro antibacterial activity (MIC), K. pneumoniae 10031; settings: Klebsiella pneumoniae, 10031, 18 h
[3] = tested on: lymphocytic leukemia P-388; experiment: Activity in mice against lymphocytic leukemia P-388; type: in vivo; settings: Mus musculus, P388, ip, read-out: T/C
S. paratyphi 11737 = experiment: In vitro antibacterial activity (MIC), S. paratyphi 11737; type: cell-based; settings: Salmonella enterica, 18 h
S. aureus Smith = experiment: In vitro antibacterial activity (MIC), S. aureus Smith; settings: Staphylococcus aureus, 18 h
[4] = 1440 h, s.c., single dose, 60-day survivors
[5] = infected mice, highest dose with no deaths for any reason
[6] = 336 h, s.c., single dose, alive on day 14 considered cured, no 60-day data

Row | Compound | ED100 [1, 4] | minimal effective dose [1, 4] | Cure/Treat at Min. Curing Dose ([1]; s.c., 60-day survivors) | MTD [2, 5] | MIC (E. coli 9637) | MIC (P. vulgaris 6896) | MIC (N. catarrhalis 8193) | MIC (S. aureus 53-180) | MIC (K. pneumoniae 10031) | response vs control in vivo at 10 mg/kg ([3]; mice, I.P., 10 mg/kg) | MIC (S. paratyphi 11737) | MIC (S. aureus Smith) | other results
1 | CCOC(=O)c1ccc(Cn2ccc3c4c(N)nc(N)nc4ccc32)cc1 [Example 17] | 20 mg/kg | 10 mg/kg | 1/5 | 80 mg/kg | 7.81 µg/mL (≈ 21.6 µM) | > 250 µg/mL | 0.488 µg/mL (≈ 1.35 µM) | 1.95 µg/mL (≈ 5.4 µM) | 1.95 µg/mL (≈ 5.4 µM) | 141% | > 250 µg/mL | 1.95 µg/mL (≈ 5.4 µM) | ΔMST (increase in mean survival time) ([1]; s.c., dose 2.5 mg. per kg.): 6.0
2 | COc1cc(Cn2ccc3c4c(N)nc(N)nc4ccc32)cc(OC)c1OC [Example 39] | – | – | 2/5 | 160 mg/kg | 0.976 µg/mL (≈ 2.57 µM) | 7.81 µg/mL (≈ 20.6 µM) | 0.0152 µg/mL (≈ 0.0401 µM) | 0.061 µg/mL (≈ 0.161 µM) | 0.122 µg/mL (≈ 0.322 µM) | – | 3.9 µg/mL (≈ 10.3 µM) | 0.122 µg/mL (≈ 0.322 µM) | ED100 ([1]; 1440 h): 160 mg/kg; minimal effective dose ([1]; 1440 h): 40 mg/kg; ΔMST (increase in mean survival time) ([1]; s.c., dose 20 mg. per kg.): 7.1; response vs control in vivo at 10 mg/kg [3]: 163%
3 | CC(C)(C)c1ccc(Cn2ccc3c4c(N)nc(N)nc4ccc32)cc1 [Example 30] | – | – | – | – | 250 µg/mL (≈ 724 µM) | > 250 µg/mL | 0.976 µg/mL (≈ 2.83 µM) | 3.9 µg/mL (≈ 11.3 µM) | 3.9 µg/mL (≈ 11.3 µM) | – | > 250 µg/mL | 7.81 µg/mL (≈ 22.6 µM) | response vs control in vivo at 5 mg/kg ([3]; mice, I.P.): 125%
4 | Cc1ccc(Cn2ccc3c4c(N)nc(N)nc4ccc32)cc1 [Example 21] | 20 mg/kg | 10 mg/kg | 2/5 | 160 mg/kg | 0.976 µg/mL (≈ 3.22 µM) | 1.95 µg/mL (≈ 6.43 µM) | 0.0152 µg/mL (≈ 0.0501 µM) | 0.488 µg/mL (≈ 1.61 µM) | 0.122 µg/mL (≈ 0.402 µM) | – | 1.95 µg/mL (≈ 6.43 µM) | 0.976 µg/mL (≈ 3.22 µM) | ΔMST (increase in mean survival time) ([1]; s.c., dose 5 mg. per kg.): 7.5; response vs control in vivo at 10 mg/kg [3]: 138%
5 | Nc1nc(N)c2c(ccc3c2ccn3Cc2ccncc2)n1 [Example 45] | – | 80 mg/kg | 3/5 | – | 0.244 µg/mL (≈ 0.84 µM) | 0.488 µg/mL (≈ 1.68 µM) | 0.0038 µg/mL (≈ 0.0131 µM) | 0.122 µg/mL (≈ 0.42 µM) | 0.122 µg/mL (≈ 0.42 µM) | – | 0.488 µg/mL (≈ 1.68 µM) | 0.122 µg/mL (≈ 0.42 µM) | ΔMST (increase in mean survival time) ([1]; s.c., dose 40 mg. per kg.): 9.7; response vs control in vivo at 15 mg/kg ([3]; mice, I.P., 15 mg/kg): 142%
6 | Nc1nc(N)c2c(ccc3c2ccn3Cc2ccc3ccccc3n2)n1 [Example 50] | 5 mg/kg | 1.25 mg/kg | 2/5 | 160 mg/kg | 7.81 µg/mL (≈ 22.9 µM) | 7.81 µg/mL (≈ 22.9 µM) | 0.0038 µg/mL (≈ 0.0112 µM) | 0.488 µg/mL (≈ 1.43 µM) | 0.122 µg/mL (≈ 0.358 µM) | 145% | 7.81 µg/mL (≈ 22.9 µM) | 0.976 µg/mL (≈ 2.87 µM) | ΔMST (increase in mean survival time) ([1]; s.c., dose 1.25 mg. per kg.): 6.9
7 | CS(=O)(=O)c1ccc(Cn2ccc3c4c(N)nc(N)nc4ccc32)cc1 [Example 63, 7-[(4-Methylsulfonylphenyl)methyl]-7H-pyrrolo[3,2-f]quinazoline-1,3-diamine] | – | 10 mg/kg | 1/5 | – | 0.976 µg/mL (≈ 2.66 µM) | 7.81 µg/mL (≈ 21.3 µM) | 0.0152 µg/mL (≈ 0.0414 µM) | 0.122 µg/mL (≈ 0.332 µM) | 0.122 µg/mL (≈ 0.332 µM) | 136% | 0.976 µg/mL (≈ 2.66 µM) | 0.122 µg/mL (≈ 0.332 µM) | ΔMST (increase in mean survival time) ([1]; s.c., dose 5 mg. per kg.): 6.5
8 | Nc1nc(N)c2c(ccc3c2ccn3Cc2ccccn2)n1 [Example 43] | 80 mg/kg | 20 mg/kg | 2/5 | 80 mg/kg | 0.488 µg/mL (≈ 1.68 µM) | 0.244 µg/mL (≈ 0.84 µM) | < 0.0009 µg/mL | 0.488 µg/mL (≈ 1.68 µM) | 0.061 µg/mL (≈ 0.21 µM) | – | 0.244 µg/mL (≈ 0.84 µM) | 0.976 µg/mL (≈ 3.36 µM) | ΔMST (increase in mean survival time) ([1]; s.c., dose 20 mg. per kg.): 11.6; response vs control in vivo at 20 mg/kg [3]: 146%
9 | Nc1nc(N)c2c(ccc3c2ccn3Cc2cccc([N+](=O)[O-])c2)n1 [Example 18, 7-[(3-nitrophenyl)methyl]-7H-pyrrolo[3,2-f]quinazoline-1,3-diamine] | 10 mg/kg | 2.5 mg/kg | 3/5 | 40 mg/kg | 0.488 µg/mL (≈ 1.46 µM) | 3.9 µg/mL (≈ 11.7 µM) | 0.0152 µg/mL (≈ 0.0455 µM) | 0.061 µg/mL (≈ 0.182 µM) | 0.122 µg/mL (≈ 0.365 µM) | – | 0.976 µg/mL (≈ 2.92 µM) | 0.122 µg/mL (≈ 0.365 µM) | ΔMST (increase in mean survival time) ([1]; s.c., dose 2.5 mg. per kg.): 7.4; response vs control in vivo at 5 mg/kg ([3]; mice, I.P.): 163%
10 | Cc1ccc(Cn2ccc3c4c(N)nc(N)nc4ccc32)cc1C [Example 25] | – | – | – | – | 1.95 µg/mL (≈ 6.14 µM) | 62.5 µg/mL (≈ 197 µM) | 0.122 µg/mL (≈ 0.384 µM) | 0.976 µg/mL (≈ 3.08 µM) | 0.488 µg/mL (≈ 1.54 µM) | 139% | 31.3 µg/mL (≈ 98.6 µM) | 1.95 µg/mL (≈ 6.14 µM) | ED100 [1, 6]: 10 mg/kg; minimal effective dose [1, 6]: 5 mg/kg; Cure/Treat at Min. Curing Dose ([1]; s.c., alive on day 14 considered cured): 2/5; ΔMST (increase in mean survival time) ([1]; s.c., dose 2.5 mg. per kg., alive on day 14 considered cured, no 60-day data): 6.5; MTD ([2]; alive on day 14 considered cured, no 60-day data): 80 mg/kg
11 | Nc1cccc(Cn2ccc3c4c(N)nc(N)nc4ccc32)c1 [Example 62, 7-[(3-Aminophenyl)methyl]-7H-pyrrolo[3,2-f]quinazoline-1,3-diamine] | 20 mg/kg | 5 mg/kg | 3/5 | 80 mg/kg | 0.244 µg/mL (≈ 0.802 µM) | 1.95 µg/mL (≈ 6.41 µM) | 0.061 µg/mL (≈ 0.2 µM) | 0.244 µg/mL (≈ 0.802 µM) | 0.122 µg/mL (≈ 0.401 µM) | 165% | 0.976 µg/mL (≈ 3.21 µM) | 0.488 µg/mL (≈ 1.6 µM) | ΔMST (increase in mean survival time) ([1]; s.c., dose 1.25 mg. per kg.): 7.8
12 | COc1ccc(Cn2ccc3c4c(N)nc(N)nc4ccc32)cc1OC [Example 37] | 20 mg/kg | 10 mg/kg | 1/5 | 80 mg/kg | 0.488 µg/mL (≈ 1.4 µM) | 1.95 µg/mL (≈ 5.58 µM) | 0.0152 µg/mL (≈ 0.0435 µM) | 0.122 µg/mL (≈ 0.349 µM) | 0.061 µg/mL (≈ 0.175 µM) | 174% | 1.95 µg/mL (≈ 5.58 µM) | 0.244 µg/mL (≈ 0.698 µM) | ΔMST (increase in mean survival time) ([1]; s.c., dose 2.5 mg. per kg.): 6.9

Reference: patent publication US4118561A, “7-(Substituted)-7H-pyrrolo[3,2-f]quinazoline-1,3-diamines” (priority 1977, dated 1978)
